According to publication PMC6941823, “A dispensable paralog of succinate dehydrogenase subunit C mediates standing resistance towards a subclass of SDHI fungicides in Zymoseptoria tritici” (PLoS Pathogens, 2019):
Read-outs that look alike come from different tables or passages of the source.

Assays:
[1] = molecular target: altC-SQR (altC) of D024 SDHC1 KO mitochondria (Zymoseptoria tritici, UniProt A0A1X7RQW2+F9X9V6+O42772); assay: Succinate-quinone (SQR) SDHI sensitivity assay on purified mitochondria, 06STD024 SDHC1 KO; format: biochemical; details: for IC50: mitochondria of 06STD024 ZtSDHC1 deletion mutant (pure altC-SQR), mean of three ± SD
Sequence of altC-SQR (altC) of D024 SDHC1 KO mitochondria (A0A1X7RQW2 36-181): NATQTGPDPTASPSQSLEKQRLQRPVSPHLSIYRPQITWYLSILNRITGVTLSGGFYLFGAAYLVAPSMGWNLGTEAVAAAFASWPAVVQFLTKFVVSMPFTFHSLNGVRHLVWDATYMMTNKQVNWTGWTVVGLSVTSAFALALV
Sequence of altC-SQR (altC) of D024 SDHC1 KO mitochondria (O42772 20-297): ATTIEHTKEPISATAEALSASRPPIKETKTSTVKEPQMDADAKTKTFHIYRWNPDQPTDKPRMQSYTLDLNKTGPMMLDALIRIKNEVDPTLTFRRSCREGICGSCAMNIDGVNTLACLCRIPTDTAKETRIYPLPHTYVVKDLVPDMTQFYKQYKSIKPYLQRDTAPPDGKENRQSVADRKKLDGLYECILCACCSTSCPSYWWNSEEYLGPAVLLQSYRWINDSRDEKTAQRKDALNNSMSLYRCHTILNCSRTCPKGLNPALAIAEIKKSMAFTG
Sequence of altC-SQR (altC) of D024 SDHC1 KO mitochondria (F9X9V6 1-193): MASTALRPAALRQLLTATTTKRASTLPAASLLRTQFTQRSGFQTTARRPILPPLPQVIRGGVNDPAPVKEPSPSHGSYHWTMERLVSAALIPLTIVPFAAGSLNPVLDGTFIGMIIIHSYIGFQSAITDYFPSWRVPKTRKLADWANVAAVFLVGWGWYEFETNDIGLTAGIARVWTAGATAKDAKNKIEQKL
Sequence of altC-SQR (altC) of D024 SDHC1 KO mitochondria (F9WWR1 41-643 partner): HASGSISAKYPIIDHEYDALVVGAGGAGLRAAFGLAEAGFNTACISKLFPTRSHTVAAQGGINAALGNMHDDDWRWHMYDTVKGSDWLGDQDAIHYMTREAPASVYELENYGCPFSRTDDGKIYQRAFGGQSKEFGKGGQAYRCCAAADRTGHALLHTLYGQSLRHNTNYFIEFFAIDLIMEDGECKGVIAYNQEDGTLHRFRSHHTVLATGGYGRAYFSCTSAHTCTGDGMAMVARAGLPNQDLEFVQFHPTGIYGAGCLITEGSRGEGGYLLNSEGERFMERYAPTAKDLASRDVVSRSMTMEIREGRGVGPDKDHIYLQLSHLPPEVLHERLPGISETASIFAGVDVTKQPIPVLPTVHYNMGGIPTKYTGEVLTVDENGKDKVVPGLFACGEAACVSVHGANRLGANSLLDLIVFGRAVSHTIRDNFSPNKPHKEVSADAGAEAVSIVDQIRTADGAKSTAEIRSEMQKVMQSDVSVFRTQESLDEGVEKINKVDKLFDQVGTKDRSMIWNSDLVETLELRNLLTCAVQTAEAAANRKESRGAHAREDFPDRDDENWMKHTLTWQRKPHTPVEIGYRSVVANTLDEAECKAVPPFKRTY
Procedure: (§1) Succinate-ubiquinone oxidoreductase (SQR) inhibition assays were performed on mitochondrial extracts from a panel of strains that were (i) either carrying a unique C-subunit encoding gene (ZtSDHC1, ZtSDHC1_A84I or Zt-SDHC3), or (ii) carrying two C-subunit encoding genes ZtSDHC1 and ZtSDHC3 (Table 1).
(§2) Biomass production, mitochondrial extraction and purification were performed as described in [14]. Succinate: ubiquinone/DCPIP sensitivity tests were performed as described in [14] with minor modification.

[2] = test system: SQR (SDHC / altC) of IPO323 pTet::SDHC3 transformant, induced; assay: Succinate-quinone (SQR) SDHI sensitivity assay on purified mitochondria, IPO323 pTet::SDHC3 induced; format: biochemical, Zymoseptoria tritici; details: IPO323 pTet::SDHC3 transformant grown in the absence of doxycycline; mean of three ± SD
Procedure: as §1, §2

[3] = molecular target: SQR (SDHC) of D024 SDHC3 KO mitochondria (Zymoseptoria tritici, UniProt F9X9V6+F9XH52+O42772); assay: Succinate-quinone (SQR) SDHI sensitivity assay on purified mitochondria, 06STD024 SDHC3 KO; format: biochemical; details: for RF (resistance factor), D024 SDHC3 KO (SDHC): IC50 ratio compared to IPO323 values; for IC50: mitochondria of 06STD024 ZtSDHC3 deletion mutant, mean of three ± SD
Procedure: as §1
(§3) Biomass production, mitochondrial extraction and purification were performed as described in [14]. Succinate: ubiquinone/DCPIP sensitivity tests were performed as described in [14] with minor modification. The different mitochondrial suspensions were adjusted to similar initial velocity (1 OD595nm hour^-1) and inhibitor concentrations ranged between 0.047nM and 50μM with uniform 4x dilution steps (11 concentrations + DMSO control). Calculated absorbance slopes (OD/min) were used for IC50 calculations using GraphPad Prism 6.07 software non-linear curve fitting against log inhibitor concentrations.

[4] = molecular target: SQR (SDHC / altC) of IPO323 pTet::SDHC3 transformant, repressed (Zymoseptoria tritici, UniProt A0A1X7RQW2+F9X9V6+F9XH52+O42772); assay: Succinate-quinone (SQR) SDHI sensitivity assay on purified mitochondria, IPO323 pTet::SDHC3 repressed; format: biochemical; details: for IC50: IPO323 pTet::SDHC3 transformant grown in presence of 30 mg.L^-1 doxycycline, mean of three ± SD
Sequence of SQR (SDHC / altC) of IPO323 pTet::SDHC3 transformant, repressed (F9XH52 44-187): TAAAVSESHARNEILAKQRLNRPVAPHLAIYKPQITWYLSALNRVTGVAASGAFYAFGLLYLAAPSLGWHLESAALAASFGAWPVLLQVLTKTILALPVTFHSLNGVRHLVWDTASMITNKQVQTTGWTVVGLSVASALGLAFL
Sequence of SQR (SDHC / altC) of IPO323 pTet::SDHC3 transformant, repressed (O42772 20-297): as the sequence (O42772 20-297) above
Sequence of SQR (SDHC / altC) of IPO323 pTet::SDHC3 transformant, repressed (F9X9V6 1-193): as the sequence (F9X9V6 1-193) above
Sequence of SQR (SDHC / altC) of IPO323 pTet::SDHC3 transformant, repressed (A0A1X7RQW2 36-181): as the sequence (A0A1X7RQW2 36-181) above
Sequence of SQR (SDHC / altC) of IPO323 pTet::SDHC3 transformant, repressed (F9WWR1 41-643 partner): as the sequence (F9WWR1 41-643 partner) above
Procedure: as §1, §2

[5] = test system: Zymoseptoria tritici field and genetically modified strains; assay: Liquid culture assay for fungicide sensitivity determination; format: cell-based; details: Zymoseptoria tritici, liquid culture sensitivity
Procedure: Sensitivity towards commercial fungicides was determined for a set of 99 SHA-SDHI-naïve Z. tritici field isolates sampled in Europe between 2006 and 2009. The EC50 of these isolates was determined in liquid growth assays and the data obtained compared for each possible pair of SDHI fungicides (cross-resistance (XR) plots, Fig 1). […] Comparative succinate-quinone reductase (SQR) enzyme inhibition tests were performed with mitochondria extracted from a panel of SHA-SDHIs tolerant and sensitive isolates.
In order to characterize in more depth the mechanisms driving sensitivity differences across the isolates, a subset of eight isolates carrying the ZtSDHC3 gene was analyzed for their sensitivity to SDHIs, alt-SDHC expression and splicing patterns. Liquid culture growth sensitivity tests were performed to determine EC50s for this set of isolates towards a wide range of commercial and research SDHIs (S5 Table).
Pre-culture of the inoculum and fungicide sensitivity tests were performed following previously described procedures. Different ranges of inhibitor concentrations were used for population monitoring and for the detailed phenotyping of a selected set of individual field isolates and genetically modified strains. For fungicide sensitivity monitoring of European field populations, final inhibitors concentrations were between 100 mg.L^-1 and 0.0001 mg.L^-1 with uniform 10x dilution steps (7 inhibitor concentrations + DMSO control). For refined sensitivity analysis of a smaller panel of isolates final inhibitor concentrations ranged between 0.5 mM and 0.47 nM with uniform 4x dilution factor steps (11 inhibitor concentrations+ DMSO control).

[6] = molecular target: WT-SQR (SDHC), IPO323 mitochondria (Zymoseptoria tritici, UniProt F9X9V6+F9XH52+O42772); assay: Succinate-quinone (SQR) SDHI sensitivity assay on purified mitochondria, IPO323; format: biochemical
Procedure: as §1, §3

[7] = molecular target: SQR of 06STD024 (SDHC / altC) mitochondria (Zymoseptoria tritici, UniProt A0A1X7RQW2+F9X9V6+F9XH52+O42772); assay: Succinate-quinone (SQR) SDHI sensitivity assay on purified mitochondria, 06STD024; format: biochemical; details: for IC50: mitochondria of field isolate 06STD024, mean of three ± SD
Sequence of SQR of 06STD024 (SDHC / altC) mitochondria (A0A1X7RQW2 36-181): as the sequence (A0A1X7RQW2 36-181) above
Sequence of SQR of 06STD024 (SDHC / altC) mitochondria (O42772 19-297): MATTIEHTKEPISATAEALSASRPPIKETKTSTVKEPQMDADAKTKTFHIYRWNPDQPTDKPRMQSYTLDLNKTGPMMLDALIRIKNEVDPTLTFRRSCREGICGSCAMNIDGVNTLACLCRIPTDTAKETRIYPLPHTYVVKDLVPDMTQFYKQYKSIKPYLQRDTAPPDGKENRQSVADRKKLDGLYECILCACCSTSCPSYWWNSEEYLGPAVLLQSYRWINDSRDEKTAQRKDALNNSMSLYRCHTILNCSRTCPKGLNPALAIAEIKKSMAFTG
Sequence of SQR of 06STD024 (SDHC / altC) mitochondria (F9X9V6 1-193): as the sequence (F9X9V6 1-193) above
Sequence of SQR of 06STD024 (SDHC / altC) mitochondria (F9XH52 44-187): as the sequence (F9XH52 44-187) above
Sequence of SQR of 06STD024 (SDHC / altC) mitochondria (F9WWR1 29-643 partner): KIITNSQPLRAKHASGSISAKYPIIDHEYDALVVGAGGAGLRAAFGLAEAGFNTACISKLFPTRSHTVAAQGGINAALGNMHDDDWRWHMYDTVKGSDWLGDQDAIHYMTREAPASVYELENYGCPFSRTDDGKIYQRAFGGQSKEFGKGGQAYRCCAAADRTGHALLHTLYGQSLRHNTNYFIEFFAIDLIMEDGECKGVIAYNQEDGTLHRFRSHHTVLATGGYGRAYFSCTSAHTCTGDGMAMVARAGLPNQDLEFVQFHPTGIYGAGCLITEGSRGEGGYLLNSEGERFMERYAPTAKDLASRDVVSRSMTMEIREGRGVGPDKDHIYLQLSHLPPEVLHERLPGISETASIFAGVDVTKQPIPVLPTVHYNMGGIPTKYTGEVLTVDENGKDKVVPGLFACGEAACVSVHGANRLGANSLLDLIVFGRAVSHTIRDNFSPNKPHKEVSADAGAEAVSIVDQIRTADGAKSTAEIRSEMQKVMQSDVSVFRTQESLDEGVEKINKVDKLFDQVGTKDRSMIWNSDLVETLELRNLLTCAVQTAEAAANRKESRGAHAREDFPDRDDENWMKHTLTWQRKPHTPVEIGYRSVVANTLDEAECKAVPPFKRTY
Procedure: as §1, §2

[8] = read-out: EC50 (nM) Mean, strain 06STD024
[9] = read-out: EC50 (nM) Mean, strain 07STGB009
[10] = read-out: EC50 (nM) Mean, strain 09STD041
[11] = read-out: EC50 (nM) Mean, strain 09STD053
[12] = read-out: EC50 (nM) Mean, strain 09STF011
[13] = read-out: EC50 (nM) Mean, strain 09STF037
[14] = read-out: EC50 (nM) Mean, strain 09STF112
[15] = read-out: EC50 (nM) Mean, strain 09STIR20.3
[16] = read-out: EC50 (nM) Mean, strain Flu21 (SDHC1_A84I)
[17] = read-out: EC50 (nM) Mean, strain IPO323
[18] = read-out: EC50 (nM) Mean, strain IPO94269
[19] = read-out: EC50 (nM) Mean, strain KO_SDHC1_T1
[20] = read-out: EC50 (nM) Mean, strain KO_SDHC1_T3
[21] = read-out: EC50 (nM) Mean, strain KO_SDHC3_T4
[22] = read-out: EC50 (nM) Mean, strain KO_SDHC3_T13
[23] = read-out: EC50 (nM) Mean, strain pTet::SDHC3_I78A_T1
[24] = read-out: EC50 (nM) Mean, strain pTet::SDHC3_I78A_T5
[25] = read-out: EC50 (nM) Mean, strain pTet::SDHC3_I78A_T15
[26] = read-out: EC50 (nM) Mean, strain pTet::SDHC3_I78A_T35
[27] = read-out: EC50 (nM) Mean, strain pTet::SDHC3_T1
[28] = read-out: EC50 (nM) Mean, strain pTet::SDHC3_T2
[29] = read-out: EC50 (nM) Mean, strain pTet::SDHC3_T3
[30] = read-out: EC50 (nM) Mean, strain pTet::SDHC3_T7
[31] = IC50 ratio compared to IPO323 values

| SMILES | IC50 [1] | IC50 [2] | RF (resistance factor), D024 SDHC3 KO (SDHC) [3] | IC50 [3] | IC50 [4] | EC50 [5, 8] | EC50 [5, 9] | EC50 [5, 10] | EC50 [5, 11] | EC50 [5, 12] | EC50 [5, 13] | EC50 [5, 14] | EC50 [5, 15] | EC50 [5, 16] | EC50 [5, 17] | EC50 [5, 18] | EC50 [5, 19] | EC50 [5, 20] | EC50 [5, 21] | EC50 [5, 22] | further results |
| --- | --- | --- | --- | --- | --- | --- | --- | --- | --- | --- | --- | --- | --- | --- | --- | --- | --- | --- | --- | --- | --- |
| C[C@@H](Cc1ccc(Cl)cc1Cl)NC(=O)c1cn(C)nc1C(F)F [Compound 2] | 0.358 ± 0.0634 µM | 0.204 ± 0.0207 µM | 0.7 | 0.0037 ± 0.0005 µM | 0.0156 ± 0.0039 µM | 2320 nM | 4000 nM | 702 nM | 367 nM | 606 nM | 178 nM | 786 nM | 259 nM | 5450 nM | 96.4 nM | 161 nM | 10400 nM | 8310 nM | 299 nM | 309 nM | EC50 [5, 23]: 168 nM; EC50 [5, 24]: 332 nM; EC50 [5, 25]: 150 nM; EC50 [5, 26]: 100 nM; EC50 [5, 27]: 6140 nM; EC50 [5, 28]: 5160 nM; EC50 [5, 29]: 5660 nM; EC50 [5, 30]: 7400 nM; IC50 [6]: 0.0053 ± 0.0006 µM; IC50 [7]: 0.415 ± 0.068 µM |
| CC1=C(C(=O)Nc2ccccc2)SCCO1 [Carboxin] | 0.865 ± 0.215 µM | 0.763 ± 0.164 µM | 0.8 | 0.775 ± 0.0945 µM | 1.2 ± 0.085 µM | 4620 nM | 6340 nM | 13200 nM | 9370 nM | 9620 nM | 6840 nM | 6780 nM | 13200 nM | 10200 nM | 8550 nM | 10800 nM | 10400 nM | 11200 nM | 20600 nM | 19600 nM | RF (resistance factor), D024 SDHC1 KO (altC) [1, 31]: 0.9; RF (resistance factor), pTet Repressed (SDHC / altC) [4, 31]: 1.2; EC50 [5, 23]: 7520 nM; EC50 [5, 24]: 12700 nM; EC50 [5, 25]: 8080 nM; EC50 [5, 26]: 15700 nM; EC50 [5, 27]: 6980 nM; EC50 [5, 28]: 7420 nM; EC50 [5, 29]: 6930 nM; EC50 [5, 30]: 8460 nM; IC50 [6]: 0.969 ± 0.182 µM; RF (resistance factor), 06STD024 (SDHC / altC) [7, 31]: 0.8; IC50 [7]: 0.731 ± 0.0844 µM |
